The values below come from patent US4103010A, “(3-Piperazinocarbonylimino-quanidino)-isoxazoles” (Aron S.A.R.L., priority 1975, dated 1978).

The nature of data set [1]: acute toxicity investigation in mice. The conditions noted are these: mouse, in vivo.
Data set [2] relates to Doca rats. The data set can be described thus: decrease of the systolic blood pressure in Doca rats. It is filed as in vivo. Particulars: Rattus norvegicus, oral, 2 × 3 mg/kg, with respect to original value, read-out: percent decrease of the systolic blood pressure. On the procedure:
(§1) The above results are confirmed by the results of an investigation of the action on the control of blood pressure. On oral administration of a dosage of 2 × 3 mg/kg of compound to Doca rats (Technique according to Green and co-workers, Am. J. Physiol., 1952, 170, p. 94) and to Grollman rats (Technique according to Grollman, Proc. Soc. Exp. Biol. Med., 1944, 57, p. 102), the percent decrease of the systolic blood pressure with respect to its original value is noted.

The subject of data set [3] is uptake of ^3 H noradrenalin by the synaptosomes of a rat hypothalamus homogenate. The data set can be described thus: inhibition of the uptake of ^3 H noradrenalin by synaptosomes of a rat hypothalamus homogenate. The conditions noted are these: with respect to the control test. It is filed as biochemical. An excerpt: The compounds of the formula (I) are capable of modifying the accumulation of noradrenalin and particularly to inhibit the uptake of ^3 H noradrenalin by the synaptosomes of a rat hypothalamus homogenate prepared according to Banerjee, Snyder and Mechoulam (J. Pharmacol. Exp. Ther., 194, 1, 74, 1975). This inhibition of the uptake of ^3 H noradrenaline is a known property of various compounds having an activity on the central nervous system and/or on the sympathetic nervous system, particularly a hypotensive effect (J. Glowinski and J. Axelrod, effects of Drugs on the Disposition of ^3 H norepinephrine in the Rat Brain, Pharmacological Reviews, Vol. 18, No […], Part I, 1966).
They are expressed as percent inhibition of the uptake with respect to the control test.

Data set [4] relates to Grollman rats. Nature of the data set: decrease of the systolic blood pressure in Grollman rats. Format: in vivo, rat. The conditions noted are these: oral, 2 × 3 mg/kg, with respect to original value. On the procedure: as §1
Where [5] appears, read: iv, read-out: LD50 (mg/kg) i.v.
[6] abbreviates: po, read-out: LD50 (mg/kg) p.o.
Where [7] appears, read: ultimate molar concentration 5 × 10^-5 M.
Setting [8] is: ultimate molar concentration 5 × 10^-6 M.
[9] abbreviates: ultimate molar concentration 5 × 10^-4 M.

Where two headings read alike, the source gives them in different places. Bounds are passed on as bounds.

As to `Cc1cc(N(C)C(=N)NC(=N)N)no1` [Example 7], the LD50 in data set [1] (setting [5]) was 70 mg/kg; in data set [1] (setting [6]), over 1000 mg/kg. Also, the inhibition in vivo at 3 mg/kg in data set [2] is 15%.
With `Cc1conc1NC(=N)NC(=N)N` [Example 8], the results for the “inhibition % of the uptake of ^3 H noradrenalin” value (from here on “inhibition %”) in data set [3] (setting [7]) and in data set [3] (setting [8]) were 55% and 36%, respectively.
As for `Cc1cc(NC(=N)NC(=N)N2CCN(C)CC2)no1` [Example 19], the inhibition in vivo at 3 mg/kg in data set [2] turned out to be 20%.
Regarding `Cc1noc(C)c1NC(=N)NC(=N)N` [Example 22], the LD50 in data set [1] (setting [5]) was over 100 mg/kg; in data set [1] (setting [6]) it was over 1500 mg/kg.
In the case of `CCCCNC(=N)NC(=N)Nc1c(C)noc1C` [Example 23], the LD50 in data set [1] (setting [6]) is over 750 mg/kg. The “inhibition %” value in data set [3] (setting [9]) amounted to 51%.
On the same counts, the results for `Cc1noc(C)c1NC(=N)NC(=N)N(C)C` [Example 24] are over 750 mg/kg and 28.4%.
Regarding `Cc1noc(NC(=N)NC(=N)N)c1C` [Example 25], the LD50 was 20 mg/kg in data set [1] (setting [5]) and 300 mg/kg in data set [1] (setting [6]). Moreover, the “inhibition %” value in data set [3] (setting [7]) is listed as 45.5%. In data set [2], the inhibition in vivo at 3 mg/kg is 20%.
As for `CCCCNC(=N)NC(=N)Nc1onc(C)c1C` [Example 26], the LD50 in data set [1] (setting [5]) is 35 mg/kg; in data set [1] (setting [6]), 250 mg/kg. Further, in data set [3] (setting [7]), the “inhibition %” value is given as 39.6%.
Turning to `CCCN1CCN(C(=N)NC(=N)Nc2cc(C)on2)CC1` [Example 28], the LD50 in data set [1] (setting [6]) was determined as 400 mg/kg. The “inhibition %” value amounted to 60.2% in data set [3] (setting [9]) and 20% in data set [3] (setting [7]). In data set [2], the inhibition in vivo at 3 mg/kg is 18%. The “percent decrease of the systolic blood pressure” value in data set [4] worked out at 18%.
In the case of `Cc1conc1NC(=N)NC(=N)N1CCN(C)CC1` [Example 29], the LD50 in data set [1] (setting [6]) was over 1000 mg/kg. In addition, the figures for the “inhibition %” value in data set [3] (setting [7]) and in data set [3] (setting [8]) were 65.8% and 30.8%, respectively. The inhibition in vivo at 3 mg/kg in data set [2] was 15%. In addition, in data set [4], the “percent decrease of the systolic blood pressure” value turned out to be 15%.
On to `Cc1cc(NC(=N)NC(=N)N2CCNCC2)no1` [Example 30], for which the LD50 in data set [1] (setting [6]) was over 1000 mg/kg. Also, the “inhibition %” value in data set [3] (setting [9]) came to 51%. The inhibition in vivo at 3 mg/kg in data set [2] was determined as 10%.
